Results published in US20230218624A1 (Urovant Sciences GmbH, priority 2017, published 2023).
Read-outs that look alike come from different tables or passages of the source. Values belong to the compound of their own block, whether it stands above or below them.

What was measured:
[1] = Mass balance study with [14C]vibegron in healthy subjects; conditions: human plasma, 2 and 4 hr
[2] = human, in vivo, po
men and women with OAB = assay: Phase 2b efficacy study in men and women with OAB; type: in vivo, human
Description: Part 2 was designed to continue to assess the safety and efficacy of concomitant dosing. […] Subjects in both Part 1 and Part 2 had the option of enrolling in a 1-year extension. Participants were required to keep a voiding diary, recording the occurrence of each strong urge, total incontinence, and urge incontinence episode. Efficacy data for Part 1 and Part 2 are summarized herein.
The total number of urgency incontinence episodes must have exceeded the total number of stress incontinence episodes for all subjects.
Conversely, a dose dependent effect on urge incontinence or total incontinence was not observed.

[3] = tested on: patients with overactive bladder; assay: Phase 2 safety data, adverse events (main study and 52-week extension); design: Drug-related AE, n subjects / Drug-related AE, % subjects / Discontinuation due to AE, n subjects / Discontinuation due to AE, % subjects / Discontinuation due to drug-related AE, n subjects / Dry eye, n subjects / Dry eye, % subjects / Constipation, n subjects / Constipation, % subjects / Diarrhea, n subjects / Diarrhea, % subjects / Dry mouth, n subjects / Dry mouth, % subjects / Alanine aminotransferase increased, n subjects / Alanine aminotransferase increased, % subjects / Aspartate aminotransferase increased, n subjects / Aspartate aminotransferase increased, % subjects / Arthralgia, n subjects / Arthralgia, % subjects / Dizziness, n subjects / Dizziness, % subjects / Dysuria, n subjects / Dysuria, % subjects: dose or concentration left out as unconfirmed
Description: A placebo group was included in the main study, and a group that received tolterodine monotherapy was included in the main study and in the extension.

patients with OAB = assay: Phase 2b cardiovascular safety: orthostatic AEs, HR and BP changes; type: in vivo, human; conditions: tolterodine 4 mg
Description: None led to discontinuation. The overall incidence of orthostatic symptoms was low.
Small differences in the percent of subjects exceeding categorical heart rate and blood pressure thresholds for vibegron were similar to those in the tolterodine arm.

QTc interval = assay: Thorough QT study, single oral doses; conditions: single dose 400 mg moxifloxacin
[4] = tolterodine ER 4 mg, OAB wet subjects
[5] = 3 consecutive post-baseline visits

share of total circulating drug-related material [1]: 12-14%
SMILES: O=C(O)C1OC(OC(c2ccccc2)C2CCC(Cc3ccc(NC(=O)C4CCc5nccc(=O)n54)cc3)N2)C(O)C(O)C1O (stereo not shown) [M7]

AUC of conmed, geometric mean ([2]; 0.03 mg): 0.81 ng·h/mL
SMILES: C#C[C@]1(O)CC[C@H]2[C@@H]3CCc4cc(O)ccc4[C@H]3CC[C@@]21C [EE, ethinyl estradiol]

AUC of conmed, geometric mean ([2]; 0.15 mg): 31 ng·h/mL
SMILES: C#C[C@]1(O)CC[C@H]2[C@@H]3CCC4=CC(=O)CC[C@@H]4[C@H]3CC[C@@]21CC [LNG, levonorgestrel]

SMILES: Cc1ccc(O)c([C@H](CCN(C(C)C)C(C)C)c2ccccc2)c1 [Tolterodine ER, tolterodine]
Micturitions, change from baseline Week 8, mean (men and women with OAB; tolterodine ER 4 mg): −1.73
Micturitions, daily number, Week 8 mean (men and women with OAB; tolterodine ER 4 mg): 9.24
Micturitions, difference from placebo Week 8, difference in LS means (men and women with OAB; tolterodine ER 4 mg): −0.54
Urgency episodes, change from baseline Week 8, mean (men and women with OAB; tolterodine ER 4 mg): −2.52
Urgency episodes, daily number, Week 8 mean (men and women with OAB; tolterodine ER 4 mg): 3.91
Urgency episodes, difference from placebo Week 8, difference in LS means (men and women with OAB; tolterodine ER 4 mg): −0.94
Change from baseline in volume voided per micturition, difference from placebo in LS means (men and women with OAB; tolterodine ER 4 mg once daily, Week 8): 30.77 mL
Total incontinence episodes, change from baseline Week 8, mean (men and women with OAB; [4]): −1.80
Total incontinence episodes, daily number, Week 8 mean (men and women with OAB; [4]): 1.32
Total incontinence episodes, difference from placebo Week 8, difference in LS means (men and women with OAB; [4]): −0.34
Urgency incontinence episodes, change from baseline Week 8, mean (men and women with OAB; [4]): −1.67
Urgency incontinence episodes, daily number, Week 8 mean (men and women with OAB; [4]): 1.15
Urgency incontinence episodes, difference from placebo Week 8, difference in LS means (men and women with OAB; [4]): −0.46
Accidental overdose, % subjects ([3]; 4 mg, first 12 weeks): (2.3) %
Accidental overdose, n subjects ([3]; 4 mg, first 12 weeks): 6
Fatigue, % subjects ([3]; 4 mg, first 12 weeks): (2.3) %
Fatigue, n subjects ([3]; 4 mg, first 12 weeks): 6
Headache, % subjects ([3]; 4 mg, first 12 weeks): (3.5) %
Headache, n subjects ([3]; 4 mg, first 12 weeks): 9
Nasopharyngitis, % subjects ([3]; 4 mg, first 12 weeks): (1.6) %
Nasopharyngitis, n subjects ([3]; 4 mg, first 12 weeks): 4
Nausea, % subjects ([3]; 4 mg, first 12 weeks): (2.3) %
Nausea, n subjects ([3]; 4 mg, first 12 weeks): 6
Osteoarthritis, % subjects ([3]; 4 mg, first 12 weeks): (0.0) %
Osteoarthritis, n subjects ([3]; 4 mg, first 12 weeks): 0
Pain in extremity, % subjects ([3]; 4 mg, first 12 weeks): (0.4) %
Pain in extremity, n subjects ([3]; 4 mg, first 12 weeks): 1
Serious AE, % subjects ([3]; 4 mg, first 12 weeks): (1.2) %
Serious AE, n subjects ([3]; 4 mg, first 12 weeks): 3
Sinusitis, % subjects ([3]; 4 mg, first 12 weeks): (0.4) %
Sinusitis, n subjects ([3]; 4 mg, first 12 weeks): 1
Urinary tract infection, % subjects ([3]; 4 mg, first 12 weeks): (4.7) %
Urinary tract infection, n subjects ([3]; 4 mg, first 12 weeks): 12
≥1 AE, % subjects ([3]; 4 mg, first 12 weeks): (45.1) %
≥1 AE, n subjects ([3]; 4 mg, first 12 weeks): 116
frequency of injuries ([3]; Phase 2 study arms): 2.1%
Alanine aminotransferase increased, % subjects ([3]; first 12 weeks): (0.4) %
Alanine aminotransferase increased, n subjects ([3]; first 12 weeks): 1
Arthralgia, % subjects ([3]; first 12 weeks): (1.2) %
Arthralgia, n subjects ([3]; first 12 weeks): 3
Aspartate aminotransferase increased, % subjects ([3]; first 12 weeks): (0.0) %
Aspartate aminotransferase increased, n subjects ([3]; first 12 weeks): 0
Constipation, % subjects ([3]; first 12 weeks): (1.9) %
Constipation, n subjects ([3]; first 12 weeks): 5
Diarrhea, % subjects ([3]; first 12 weeks): (3.5) %
Diarrhea, n subjects ([3]; first 12 weeks): 9
Discontinuation due to AE, % subjects ([3]; first 12 weeks): (1.6) %
Discontinuation due to AE, n subjects ([3]; first 12 weeks): 4
Discontinuation due to drug-related AE, n subjects ([3]; first 12 weeks): 0
Dizziness, % subjects ([3]; first 12 weeks): (1.9) %
Dizziness, n subjects ([3]; first 12 weeks): 5
Drug-related AE, % subjects ([3]; first 12 weeks): (16.3) %
Drug-related AE, n subjects ([3]; first 12 weeks): 42
Dry eye, % subjects ([3]; first 12 weeks): (3.9) %
Dry eye, n subjects ([3]; first 12 weeks): 10
Dry mouth, % subjects ([3]; first 12 weeks): (8.6) %
Dry mouth, n subjects ([3]; first 12 weeks): 22
Dysuria, % subjects ([3]; first 12 weeks): (1.2) %
Dysuria, n subjects ([3]; first 12 weeks): 3
SAEs reported ([3]; tolterodine 4 mg, main study): 3
DBP change from baseline, mean (week 1) (patients with OAB): −0.12 mm Hg
DBP change from baseline, mean maximum (week 1 to 8) (patients with OAB): 5.19 mm Hg
HR change from baseline, mean (week 1) (patients with OAB): 0.68 bpm
HR change from baseline, mean maximum (week 1 to 8) (patients with OAB): 5.66 bpm
SBP change from baseline, mean (week 1) (patients with OAB): 0.04 mm Hg
SBP change from baseline, mean maximum (week 1 to 8) (patients with OAB): 7.29 mm Hg
DBP change from baseline ≥5 mm Hg, subjects (patients with OAB; [5]): (12.4) %
DBP change from baseline ≥10 bpm, subjects (patients with OAB; [5]): (5.4) %
DBP change from baseline ≥15 bpm, subjects (patients with OAB; [5]): (1.2) %
HR change from baseline ≥5 mm Hg, subjects (patients with OAB; [5]): (12.0) %
HR change from baseline ≥10 bpm, subjects (patients with OAB; [5]): (4.5) %
HR change from baseline ≥15 bpm, subjects (patients with OAB; [5]): (1.7) %
SBP change from baseline ≥5 mm Hg, subjects (patients with OAB; [5]): (16.9) %
SBP change from baseline ≥10 bpm, subjects (patients with OAB; [5]): (7.9) %
SBP change from baseline ≥15 bpm, subjects (patients with OAB; [5]): (2.9) %

SMILES: COc1c(N2C[C@@H]3CCCN[C@@H]3C2)c(F)cc2c(=O)c(C(=O)O)cn(C3CC3)c12 [moxifloxacin, reference compound]
effect on QTcF (QTc interval): statistically significant effect
